Patent US20050137230A1, “Carboxamide derivatives” (priority 2000, published 2005)

Tests used:
[1] = molecular target: factor Xa (Homo sapiens, UniProt P00742); assay: inhibition of factor Xa; type: biochemical
Description: The inhibition of factor Xa by the compounds according to the invention and the measurement of the anticoagulant and antithrombotic activity can be determined by conventional in-vitro or in-vivo methods. A suitable method is described, for example, by J. Hauptmann et al. in Thrombosis and Haemostasis 1990, 63, 220-223.
The inhibition of factor Xa can be measured, for example, by the method of T. Hara et al. in Thromb. Haemostas. 1994, 71, 314-319.

[2] = molecular target: T1, factor VIIa (Homo sapiens, UniProt P08709); assay: inhibition of factor VIIa; type: biochemical
T1 sequence (P08709 213-466 limits assumed): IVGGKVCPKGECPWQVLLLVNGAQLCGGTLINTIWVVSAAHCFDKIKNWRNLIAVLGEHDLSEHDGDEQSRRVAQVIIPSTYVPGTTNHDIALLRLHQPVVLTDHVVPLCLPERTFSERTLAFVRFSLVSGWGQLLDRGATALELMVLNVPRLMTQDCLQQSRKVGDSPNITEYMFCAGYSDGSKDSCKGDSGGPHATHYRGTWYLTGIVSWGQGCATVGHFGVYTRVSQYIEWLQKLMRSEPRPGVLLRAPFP
T1 sequence (P08709 61-212 partner limits assumed): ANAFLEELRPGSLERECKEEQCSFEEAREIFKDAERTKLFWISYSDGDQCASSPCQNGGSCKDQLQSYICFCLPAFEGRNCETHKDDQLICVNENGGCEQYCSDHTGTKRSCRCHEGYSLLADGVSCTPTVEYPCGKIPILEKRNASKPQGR
Description: The inhibition of factor VIIa by the compounds according to the invention and the measurement of the anticoagulant and antithrombotic activity can be determined by conventional in-vitro or in-vivo methods. A conventional method for the measurement of the inhibition of factor VIIa is described, for example, by H. F. Ronning et al. in Thrombosis Research 1996, 84, 73-81.

factor Xa, sequence (P00742 235-488 limits assumed): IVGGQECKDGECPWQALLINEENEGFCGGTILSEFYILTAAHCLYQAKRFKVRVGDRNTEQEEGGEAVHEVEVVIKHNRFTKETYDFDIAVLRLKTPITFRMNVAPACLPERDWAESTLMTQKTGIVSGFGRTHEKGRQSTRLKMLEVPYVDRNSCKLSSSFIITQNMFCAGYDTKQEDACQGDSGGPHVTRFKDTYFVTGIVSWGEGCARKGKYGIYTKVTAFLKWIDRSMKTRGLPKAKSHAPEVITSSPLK
factor Xa, sequence (P00742 41-179 partner limits assumed): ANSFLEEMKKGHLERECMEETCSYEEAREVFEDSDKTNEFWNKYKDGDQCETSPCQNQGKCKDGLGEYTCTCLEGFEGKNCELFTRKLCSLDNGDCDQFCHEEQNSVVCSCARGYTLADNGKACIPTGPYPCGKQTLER

SMILES	IC50 [1] [nM]	IC50 [2] [nM]
CCCC(NC(=O)Nc1ccc(Cl)cc1)C(=O)NCC1CCN(c2ccncc2)CC1 (centres unmarked) [2-[3-(4-chlorophenyl)ureido]-N-[1-(pyridin-4-yl)piperidin-4-ylmethyl]-valeramide]	580	
CS(=O)(=O)c1ccccc1-c1ccc(NC(=O)C(Cc2cccs2)NC(=O)Nc2ccccc2)cc1 (centres unmarked) [2-(3-phenylureido)-N-(2′-methylsulfonylbiphenyl-4-yl)-3-(thiophen-2-yl)-propionamide]	1200	750
O=C(Nc1ccc(Cl)cc1)N[C@@H](C(=O)NCC1CCN(c2ccncc2)CC1)c1ccccc1 [(R)-2-[3-(4-chlorophenyl)ureido]-N-[1-(pyridin-4-yl)piperidin-4-ylmethyl]-2-phenylacetamide]	55	
O=C(Nc1ccc(Cl)cc1)OC(C(=O)NCC1CCN(c2ccncc2)CC1)c1ccccc1 (centres unmarked) [2-[N-(4-chlorophenyl)-carbamoyloxy]-N-[1-(pyridin-4-yl)piperidin-4-ylmethyl]-2-phenylacetamide]	71	
CS(=O)(=O)c1ccccc1-c1ccc(NC(=O)C(NC(=O)Nc2ccccc2)c2ccccc2)cc1 (centres unmarked) [2-(3-phenylureido)-N-(2′-methylsulfonylbiphenyl-4-yl)-2-phenyl-acetamide]	2300	2000
CCCC[C@@H](NC(=O)Nc1ccccc1)C(=O)Nc1ccc(-c2ccccc2S(C)(=O)=O)cc1 [(R)-2-(3-phenylureido)-N-(2′-methylsulfonylbiphenyl-4-yl)hexanoamide]	3000	170
CS(=O)(=O)c1ccccc1-c1ccc(NC(=O)[C@@H](Cc2ccccc2)NC(=O)Nc2ccc(Cl)cc2)cc1 [(R)-2-[3-(4-chlorophenyl)ureido]-N-(2′-methylsulfonylbiphenyl-4-yl)-3-phenylpropionamide]	86	65
CC(C)C[C@@H](NC(=O)Nc1ccc(Cl)cc1)C(=O)NCC1CCN(c2ccncc2)CC1 [(R)-2-[3-(4-chlorophenyl)ureido]-N-[1-(pyridin-4-yl)piperidin-4-ylmethyl]-4-methylvaleramide]	410	
CS(=O)(=O)c1ccccc1-c1ccc(NC(=O)C(Cc2cnc[nH]2)NC(=O)Nc2ccccc2)cc1 (centres unmarked) [2-(3-phenylureido)-N-(2′-methylsulfonylbiphenyl-4-yl)-3-(3H-imidazol-4-yl)propionamide]	2000	2000
CCC[C@@H](NC(=O)Nc1ccccc1)C(=O)Nc1ccc(-c2ccccc2S(C)(=O)=O)cc1 [(R)-2-(3-phenylureido)-N-(2′-methylsulfonylbiphenyl-4-yl)pentanoamide]	2000	930
CCC[C@H](NC(=O)Nc1ccccn1)C(=O)Nc1ccc(-c2ccccc2S(C)(=O)=O)cc1 [(S)-2-(3-pyridin-2-ylureido)-N-(2′-methylsulfonylbiphenyl-4-yl)-pentanoamide]	3800	2700
CSCCC(NC(=O)Nc1ccccc1)C(=O)Nc1ccc(-c2ccccc2S(C)(=O)=O)cc1 (centres unmarked) [2-(3-phenylureido)-N-(2′-methylsulfonylbiphenyl-4-yl)-4-methylsulfanylbutyramide]	2300	1800
